Each structure is given as a SMILES string.

Chain of Beta-3 Adrenergic Receptor (P13945 whole entry, species assumed): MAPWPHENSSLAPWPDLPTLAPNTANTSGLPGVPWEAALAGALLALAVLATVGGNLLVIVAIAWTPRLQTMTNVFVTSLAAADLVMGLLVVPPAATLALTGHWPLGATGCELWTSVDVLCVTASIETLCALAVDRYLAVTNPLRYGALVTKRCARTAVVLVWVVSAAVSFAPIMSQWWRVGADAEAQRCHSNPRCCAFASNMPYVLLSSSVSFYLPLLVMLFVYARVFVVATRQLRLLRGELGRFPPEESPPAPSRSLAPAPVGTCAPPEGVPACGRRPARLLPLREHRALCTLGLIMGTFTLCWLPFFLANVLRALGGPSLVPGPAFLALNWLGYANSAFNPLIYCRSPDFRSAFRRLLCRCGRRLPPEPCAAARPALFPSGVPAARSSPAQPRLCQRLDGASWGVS

In the assay the target is Beta-3 Adrenergic Receptor (Homo sapiens (Human), UniProt P13945). Briefly: HTRF cAMP antagonist assay (IC50 determination). It counts as cell-based. The note with it: CHO-K1 cells stably expressing recombinant receptor; antagonism of isoproterenol at EC90; cAMP readout. The gist of the method:
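CHO-K1 cells stably expressing receptor, 1500 cells/well, preincubated briefly with 10-point 5-fold compound series (top final typically 10 or 100 μM) in PBS with 1 mM IBMX, then challenged with isoproterenol at EC90 for 1 h at room temperature. cAMP read by HTRF against on-plate standard curve; IC50 from dose-response.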
(In general: In TR-FRET formats the signal depends on donor and acceptor labels being close together.)
Turning to `CC(C)(C)NCc1ccc(-c2cccc(S(=O)(=O)N3CCC4(CC3)C[C@@H](NC[C@H](O)COc3cccc(S(=O)(=O)C5(CO)CC5)c3)CO4)c2)cc1` [Compound 262, (S)-1-((R)-8-(4′-((tert-butylamino)methyl)biphenyl-3-ylsulfonyl)-1-oxa-8-azaspiro[4.5]decan-3-ylamino)-3-(3-(1-(hydroxymethyl)cyclopropylsulfonyl)phenoxy)propan-2-ol], the IC50 came out at 982 nM.
`CS(=O)(=O)c1cccc(OC[C@@H](O)CNC2COC3(CCN(S(=O)(=O)c4ccc5[nH]ncc5c4)CC3)C2)c1` (stereo partly shown) [Compound 77, (2,5)-1-(8-(1H-indazol-5-ylsulfonyl)-1-oxa-8-azaspiro[4.5]decan-3-ylamino)-3-(3-(methylsulfonyl)phenoxy)propan-2-ol]: the IC50 was determined as 35.1 nM.
Turning to `Cc1c(Br)cccc1S(=O)(=O)N1CCC2(CC1)C[C@@H](NC[C@H](O)COc1cccc(S(=O)(=O)C3(CO)CC3)c1)CO2` [Compound 192, (S)-1-((R)-8-(3-bromo-2-methylphenylsulfonyl)-1-oxa-8-azaspiro[4.5]decan-3-ylamino)-3-(3-(1-(hydroxymethyl)cyclopropylsulfonyl)phenoxy)propan-2-ol], the IC50 amounted to 298 nM.
On to `O=C(O)CS(=O)(=O)c1cccc(OC[C@@H](O)CN[C@H]2COC3(CCN(S(=O)(=O)c4cnc5ccccc5c4)CC3)C2)c1` [Compound 183, 2-(3-((S)-2-hydroxy-3-((R)-8-(quinolin-3-ylsulfonyl)-1-oxa-8-azaspiro[4.5]decan-3-ylamino)propoxy)phenylsulfonyl)acetic acid], for which the IC50 is 1600 nM.
The figure for `CS(=O)(=O)c1cccc(OC[C@@H](O)CNC2COC3(CCN(S(=O)(=O)c4ccc(Cl)c5nonc45)CC3)C2)c1` (stereo partly drawn) [Compound 30, (2S)-1-(8-(7-chlorobenzo[c][1,2,5]oxadiazol-4-ylsulfonyl)-1-oxa-8-azaspiro[4.5]decan-3-ylamino)-3-(3-(methylsulfonyl)phenoxy)propan-2-ol] is 34.3 nM.
In the case of `CCn1cc(S(=O)(=O)N2CCC3(CC2)C[C@@H](NC[C@H](O)COc2cccc(S(=O)(=O)C4CC4)c2)CO3)c(=O)c2cccc(C)c21` [Compound 315, 3-((R)-3-((S)-3-(3-(cyclopropylsulfonyl)phenoxy)-2-hydroxypropylamino)-1-oxa-8-azaspiro[4.5]decan-8-ylsulfonyl)-1-ethyl-8-methylquinolin-4(1H)-one], the IC50 stood at 23.9 nM.
For `O=S(=O)(c1cccc(OC[C@@H](O)CNC2COC3(CCN(S(=O)(=O)c4ccc5ccccc5c4)CC3)C2)c1)C1CCCC1` (stereo partly drawn) [Compound 19, (2S)-1-(3-(cyclopentylsulfonyl)phenoxy)-3-(8-(naphthalen-2-ylsulfonyl)-1-oxa-8-azaspiro[4.5]decan-3-ylamino)propan-2-ol], the IC50 is 66.7 nM.
In the case of `CS(=O)(=O)c1cccc(OC[C@@H](O)CN[C@H]2COC3(CCN(S(=O)(=O)c4ccc5ccccc5c4)CC3)C2)c1` [Compound 3, (S)-1-(3-(methylsulfonyl)phenoxy)-3-((R)-8-(naphthalen-2-ylsulfonyl)-1-oxa-8-azaspiro[4.5]decan-3-ylamino)propan-2-ol], the 50% inhibitory concentration (IC50) was 5.47 nM.
With `Cc1ccnc(-c2cccc(S(=O)(=O)N3CCC4(CC3)C[C@@H](NC[C@H](O)COc3cccc(S(=O)(=O)CCO)c3)CO4)c2)c1` [Compound 129, (S)-1-(3-(2-hydroxyethylsulfonyl)phenoxy)-3-((R)-8-(3-(4-methylpyridin-2-yl)phenylsulfonyl)-1-oxa-8-azaspiro[4.5]decan-3-ylamino)propan-2-ol], the IC50 was determined as 485 nM.
On to `Cc1c(S(=O)(=O)N2CCC3(CC2)C[C@H](NC[C@H](O)COc2cccc(S(=O)(=O)C4(CO)CC4)c2)CO3)cnc2c1N(C)CCO2` [Compound 250, (S)-1-((S)-8-(1,8-dimethyl-2,3-dihydro-1H-pyrido[2,3-b][1,4]oxazin-7-ylsulfonyl)-1-oxa-8-azaspiro[4.5]decan-3-ylamino)-3-(3-(1-(hydroxymethyl)cyclopropylsulfonyl)phenoxy)propan-2-ol], for which the IC50 stood at 336 nM.
To `O=S(=O)(c1cnc2ccccc2c1)N1CCC2(CC1)C[C@@H](NC[C@H](O)COc1cccc(S(=O)(=O)C3(CO)CCC3)c1)CO2` [Compound 107, (S)-1-(3-(1-(hydroxymethyl)cyclobutylsulfonyl)phenoxy)-3-((R)-8-(quinolin-3-ylsulfonyl)-1-oxa-8-azaspiro[4.5]decan-3-ylamino)propan-2-ol] belongs 25.7 nM.
Turning to `NCc1ccc(-c2cccc(S(=O)(=O)N3CCC4(CC3)C[C@H](NC[C@H](O)COc3cccc(S(=O)(=O)C5(CO)CC5)c3)CO4)c2)cc1` [Compound 164, (S)-1-((S)-8-(4′-(aminomethyl)biphenyl-3-ylsulfonyl)-1-oxa-8-azaspiro[4.5]decan-3-ylamino)-3-(3-(1-(hydroxymethyl)cyclopropylsulfonyl)phenoxy)propan-2-ol], the IC50 was 27.7 nM.
Turning to `Cc1ccc2ncc(S(=O)(=O)N3CCC4(CC3)C[C@@H](NC[C@H](O)COc3cccc(S(=O)(=O)C5CC5)c3)CO4)c(O)c2c1` [Compound 324, 3-((R)-3-((S)-3-(3-(cyclopropylsulfonyl)phenoxy)-2-hydroxypropylamino)-1-oxa-8-azaspiro[4.5]decan-8-ylsulfonyl)-6-methylquinolin-4-ol], the IC50 was 22.5 nM.
For the compound `NCc1ccc(-c2cccc(S(=O)(=O)N3CCC4(CC3)C[C@@H](NC[C@H](O)COc3cccc(S(=O)(=O)CCO)c3)CO4)c2)cc1` [Compound 91, (S)-1-((R)-8-(4′-(aminomethyl)biphenyl-3-ylsulfonyl)-1-oxa-8-azaspiro[4.5]decan-3-ylamino)-3-(3-(2-hydroxyethylsulfonyl)phenoxy)propan-2-ol], the half-maximal inhibitory concentration (IC50) turned out to be 37.1 nM.
To `CC(C)(CO)S(=O)(=O)c1cccc(OC[C@@H](O)CN[C@H]2COC3(CCN(S(=O)(=O)c4cnc5ccccc5c4)CC3)C2)c1` [Compound 106, 2-(3-((S)-2-hydroxy-3-((R)-8-(quinolin-3-ylsulfonyl)-1-oxa-8-azaspiro[4.5]decan-3-ylamino)propoxy)phenylsulfonyl)-2-methylpropan-1-ol] belongs 36.2 nM.
The figure for `CS(=O)(=O)c1cccc(OC[C@@H](O)CNC2COC3(CCN(S(=O)(=O)c4ccc5[nH]ccc5c4)CC3)C2)c1` (stereo partly drawn) [Compound 62, (2S)-1-(8-(1H-indol-5-ylsulfonyl)-1-oxa-8-azaspiro[4.5]decan-3-ylamino)-3-(3-(methylsulfonyl)phenoxy)propan-2-ol] is 24.5 nM; for `CCn1cc(S(=O)(=O)N2CCC3(CC2)C[C@@H](NC[C@H](O)COc2cccc(S(=O)(=O)C(C)F)c2)CO3)c(=O)c2ccccc21` (stereo partly drawn) [Compound 299, 1-ethyl-3-((3R)-3-((2S)-3-(3-(1-fluoroethylsulfonyl)phenoxy)-2-hydroxypropylamino)-1-oxa-8-azaspiro[4.5]decan-8-ylsulfonyl)quinolin-4(1H)-one] it is 44.3 nM; for `CS(=O)(=O)c1cccc(OC[C@@H](O)CNC2COC3(CCN(C(=O)c4c[nH]c5ccccc45)CC3)C2)c1` (stereo partly drawn) [Compound 66, (3-((S)-2-hydroxy-3-(3-(methylsulfonyl)phenoxy)propylamino)-1-oxa-8-azaspiro[4.5]decan-8-yl)(1H-indol-3-yl)methanone] it is 982 nM.
As for `COc1ccc(S(=O)(=O)N2CCC3(CC2)C[C@@H](NC[C@H](O)COc2cccc(S(=O)(=O)C4(CO)CC4)c2)CO3)cc1-c1ccc(CN)cc1` [Compound 208, (S)-1-((R)-8-(4′-(aminomethyl)-6-methoxybiphenyl-3-ylsulfonyl)-1-oxa-8-azaspiro[4.5]decan-3-ylamino)-3-(3-(1-(hydroxymethyl)cyclopropylsulfonyl)phenoxy)propan-2-ol], the IC50 turned out to be 34.8 nM.
Regarding `CS(=O)(=O)c1cccc(OC[C@@H](O)CNC2COC3(CCN(S(=O)(=O)c4ccc5c(c4)CCCO5)CC3)C2)c1` (stereo partly drawn) [Compound 28, (2S)-1-(8-(chroman-6-ylsulfonyl)-1-oxa-8-azaspiro[4.5]decan-3-ylamino)-3-(3-(methylsulfonyl)phenoxy)propan-2-ol], the IC50 came out at 18.5 nM.
On to `CS(=O)(=O)c1cccc(OC[C@@H](O)CNC2COC3(CCN(S(=O)(=O)c4cccc(C#N)c4)CC3)C2)c1` (stereo partly drawn) [Compound 55, 3-(3-((S)-2-hydroxy-3-(3-(methylsulfonyl)phenoxy)propylamino)-1-oxa-8-azaspiro[4.5]decan-8-ylsulfonyl)benzonitrile], for which the IC50 is 30.5 nM.
`O=c1[nH]c2cc(S(=O)(=O)N3CCC4(CC3)C[C@@H](NC[C@H](O)COc3cccc(S(=O)(=O)C5CC5)c3)CO4)cnc2[nH]1` [Compound 281, 6-((R)-3-((S)-3-(3-(cyclopropylsulfonyl)phenoxy)-2-hydroxypropylamino)-1-oxa-8-azaspiro[4.5]decan-8-ylsulfonyl)-1H-imidazo[4,5-b]pyridin-2(3H)-one]: the IC50 stood at 57.9 nM.
To `O=S(=O)(CCO)c1cc(F)cc(OC[C@@H](O)CN[C@H]2COC3(CCN(S(=O)(=O)c4cnc5ccccc5c4)CC3)C2)c1` [Compound 248, (S)-1-(3-fluoro-5-(2-hydroxyethylsulfonyl)phenoxy)-3-((R)-8-(quinolin-3-ylsulfonyl)-1-oxa-8-azaspiro[4.5]decan-3-ylamino)propan-2-ol] belongs 72.4 nM; to `O=S(=O)(c1cccc(-c2ccc(CN3CCC3)cc2)c1)N1CCC2(CC1)C[C@@H](NC[C@H](O)COc1cccc(S(=O)(=O)C3(CO)CC3)c1)CO2` [Compound 265, (S)-1-((R)-8-(4′-(azetidin-1-ylmethyl)biphenyl-3-ylsulfonyl)-1-oxa-8-azaspiro[4.5]decan-3-ylamino)-3-(3-(1-(hydroxymethyl)cyclopropylsulfonyl)phenoxy)propan-2-ol], 374 nM.
For `Cc1ccc2c(O)c(S(=O)(=O)N3CCC4(CC3)C[C@@H](NC[C@H](O)COc3cccc(S(=O)(=O)C5CC5)c3)CO4)cnc2c1` [Compound 330, 3-((R)-3-((S)-3-(3-(cyclopropylsulfonyl)phenoxy)-2-hydroxypropylamino)-1-oxa-8-azaspiro[4.5]decan-8-ylsulfonyl)-7-methylquinolin-4-ol], the IC50 came to 70.1 nM.

As usually defined, the IC50 is the concentration at which inhibition is half-maximal.

Source of the values: patent US10927123B2, “Modulators of the beta-3 adrenergic receptor useful for the treatment or prevention of disorders related thereto” (Arena Pharmaceuticals, Inc., priority 2016, dated 2021).
